Reference: patent publication US9884063B2, “Amido-substituted azole compounds” (Bayer Pharma Aktiengesellschaft, priority 2014, dated 2018)
pIC50: −log10 of the molar value.

Target: T1, TNKS1 (Homo sapiens, UniProt O95271)
T1 sequence (O95271 1-1327): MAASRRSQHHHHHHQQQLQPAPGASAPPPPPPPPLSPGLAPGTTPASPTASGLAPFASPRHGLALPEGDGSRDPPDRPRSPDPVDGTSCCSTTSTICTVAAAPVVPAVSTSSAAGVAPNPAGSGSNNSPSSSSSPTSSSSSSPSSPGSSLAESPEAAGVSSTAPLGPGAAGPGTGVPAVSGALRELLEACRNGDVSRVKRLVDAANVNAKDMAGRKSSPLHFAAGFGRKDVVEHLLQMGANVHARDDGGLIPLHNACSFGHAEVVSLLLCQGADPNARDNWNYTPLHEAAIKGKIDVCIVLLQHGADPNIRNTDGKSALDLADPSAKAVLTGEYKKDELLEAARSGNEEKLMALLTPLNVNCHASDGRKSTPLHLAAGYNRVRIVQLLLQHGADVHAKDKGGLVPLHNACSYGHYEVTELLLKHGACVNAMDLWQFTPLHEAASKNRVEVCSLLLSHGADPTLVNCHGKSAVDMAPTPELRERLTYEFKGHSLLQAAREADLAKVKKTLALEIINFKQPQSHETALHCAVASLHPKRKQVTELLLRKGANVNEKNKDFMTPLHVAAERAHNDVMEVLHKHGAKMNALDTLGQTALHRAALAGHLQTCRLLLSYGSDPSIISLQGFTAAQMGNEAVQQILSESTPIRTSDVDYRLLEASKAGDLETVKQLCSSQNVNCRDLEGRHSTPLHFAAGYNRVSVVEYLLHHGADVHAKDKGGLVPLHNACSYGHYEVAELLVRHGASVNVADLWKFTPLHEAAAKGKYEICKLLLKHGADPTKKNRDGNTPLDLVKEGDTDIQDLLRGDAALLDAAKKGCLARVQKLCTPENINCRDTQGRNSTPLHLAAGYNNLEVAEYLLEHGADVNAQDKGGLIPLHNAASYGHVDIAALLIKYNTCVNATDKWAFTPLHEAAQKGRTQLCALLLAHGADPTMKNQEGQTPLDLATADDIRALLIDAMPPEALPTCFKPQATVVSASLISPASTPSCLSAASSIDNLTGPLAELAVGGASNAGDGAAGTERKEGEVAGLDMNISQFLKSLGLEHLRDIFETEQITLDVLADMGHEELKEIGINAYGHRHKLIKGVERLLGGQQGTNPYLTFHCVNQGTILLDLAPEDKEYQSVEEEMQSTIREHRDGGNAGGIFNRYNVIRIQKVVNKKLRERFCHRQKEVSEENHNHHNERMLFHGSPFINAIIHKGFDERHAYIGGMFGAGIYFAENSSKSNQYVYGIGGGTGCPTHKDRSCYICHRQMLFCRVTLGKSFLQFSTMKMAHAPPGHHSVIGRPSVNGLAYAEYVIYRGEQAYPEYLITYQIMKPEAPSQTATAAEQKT
Test: Modified TNKS1 Assay 2 (auto-parsylation, [3H]-NAD+ SPA)
Format: biochemical
Settings: 6 nM TNKS1, 96 well
Description: The potency of selected compounds according to the invention was assessed applying an modified in vitro inhibition assay. Here, the TNKS1 catalyzed NAD^+-dependent ribosylation of the enzyme itself (auto-parsylation) was detected using [^3H]-NAD^+ as substrate and applying the scintillation proximity assay (SPA) method to detect tritium-labeled, parsylated TNKS1. The intensity of the readout signal is proportional to the incorporated [^3H]-NAD^+. Inhibition of TNKS1 leads to a decreased incorporation of [^3H]-NAD^+ and consequently to a lower readout signal intensity. The concentration of a test compound which inhibits the enzyme activity by 50% (corresponds to half of the normed readout signal intensity) is reported as IC50.
The assay was conducted in a 96 well MTP format with the identical TNKS1 enzyme sample and NAD^+ sample as in the histone ribosylation assay with the following modifications: TNKS1 enzyme sample was diluted with a modified assay buffer (50 mM MES pH 7.0, 1 mM DTT, 0.01% Triton X-100) to a final concentration of 6 nM TNKS1 and 10×NAD^+ solution was diluted with the modified assay buffer (s. above) to a final 0.445×NAD^+ solution doped with 100 Bq/ul [^3H]-NAD^+[Catalog #NET443H050UC, Perkin Elmer, Waltham, Mass., USA]. Substrate solution (10 ul) was incubated with different test compound concentrations (2.5 ul in 10% DMSO in modified assay buffer) or control (2.5 ul 10% DMSO in modified assay buffer only) and enzyme (10 ul) over night at room temperature. Incorporated tritium was measured after addition of 50 ul SPA beads (1 mg/ml) [Catalog #RPNQ0095 20 mg/ml, Perkin Elmer, Waltham, Mass., USA; diluted 1:10 with Dulbecco's phosphate buffered saline, PBS Catalog #D8537, Sigma-Aldrich, Steinheim, Germany] and detection of the photon emission with a beta count plate reader [Wallac MicroBeta®, Perkin Elmer, Waltham, Mass., USA].

Row | SMILES | pIC50
1 | CNC(=O)c1nc[nH]c1C(=O)Nc1ccc(NC(=O)c2ccccc2O)cc1 [Example 239, N^5-{4-[(2-hydroxybenzoyl)amino]phenyl}-N^4-methyl-1H-imidazole-4,5-dicarboxamide] | < 5.00
2 | CNC(=O)c1nc[nH]c1C(=O)Nc1ccc(NC(=O)c2cnccc2Cl)cc1 [Example 254, N^5-(4-{[(4-chloropyridin-3-yl)carbonyl]amino}phenyl)-N^4-methyl-1H-imidazole-4,5-dicarboxamide] | 6.24
3 | CC(C)(CN1CCCCC1)NC(=O)c1[nH]cnc1C(=O)Nc1ccc(NC(=O)c2ccc(F)cc2Cl)cc1 [Example 184, N^4-{4-[(2-chloro-4-fluorobenzoyl)amino]phenyl}-N^5-[2-methyl-1-(piperidin-1-yl)propan-2-yl]-1H-imidazole-4,5-dicarboxamide] | 7.52
4 | CCS(=N)(=O)c1ccc(C(=O)Nc2ccc(NC(=O)c3[nH]cnc3C(=O)NC)cc2)c(Cl)c1 (stereo not drawn) [Example 255, N^5-(4-{[2-chloro-4-(S-ethylsulfonimidoyl)benzoyl]amino}phenyl)-N^4-methyl-1H-imidazole-4,5-dicarboxamide] | 6.17
5 | O=C(Nc1ccc(NC(=O)c2nc[nH]c2C(=O)NC(CO)CO)cc1)c1ccccc1Cl [Example 157, N^4-{4-[(2-chlorobenzoyl)amino]phenyl}-N^5-(1,3-dihydroxypropan-2-yl)-1H-imidazole-4,5-dicarboxamide] | 5.92
6 | CNC(=O)c1nc[nH]c1C(=O)Nc1ccc(NC(=O)c2cc(F)c(F)cc2Cl)cc1 [Example 242, N^5-{4-[(2-chloro-4,5-difluorobenzoyl)amino]phenyl}-N^4-methyl-1H-imidazole-4,5-dicarboxamide] | 7.70
7 | CNC(=O)c1ncoc1C(=O)Nc1ccc(NC(=O)c2ccc(F)cc2Cl)cc1 [Example 11, N^5-{4-[(2-chloro-4-fluorobenzoyl)amino]phenyl}-N^4-methyl-1,3-oxazole-4,5-dicarboxamide] | 6.82
8 | O=C(Nc1ccc(NC(=O)c2nc[nH]c2C(=O)NCCF)cc1)c1ccccc1Cl [Example 166, N^4-{4-[(2-chlorobenzoyl)amino]phenyl}-N^5-(2-fluoroethyl)-1H-imidazole-4,5-dicarboxamide] | 6.62
9 | CNC(=O)c1nc[nH]c1C(=O)Nc1ccc(NC(=O)c2cc(OCCN3CCCCC3)ccc2Cl)cc1 [Example 125, N^5-[4-({2-chloro-5-[2-(piperidin-1-yl)ethoxy]benzoyl}amino)phenyl]-N^4-methyl-1H-imidazole-4,5-dicarboxamide] | < 5.00
10 | CNC(=O)c1nc[nH]c1C(=O)Nc1ccc(NC(=O)c2ccc(OCCN(C)C)cc2Cl)cc1 [Example 25, N^5-[4-({2-chloro-4-[2-(dimethylamino)ethoxy]benzoyl}amino)phenyl]-N^4-methyl-1H-imidazole-4,5-dicarboxamide] | 7.10
11 | CC1CCCCN1CCNC(=O)c1[nH]cnc1C(=O)Nc1ccc(NC(=O)c2ccc(F)cc2)cc1 (stereo not drawn) [Example 169, N^4-{4-[(4-fluorobenzoyl)amino]phenyl}-N^5-[2-(2-methylpiperidin-1-yl)ethyl]-1H-imidazole-4,5-dicarboxamide] | 7.05
12 | CC(C)(CN1CCOCC1)NC(=O)c1[nH]cnc1C(=O)Nc1ccc(NC(=O)c2ccc(F)cc2)cc1 [Example 180, N^4-{4-[(4-fluorobenzoyl)amino]phenyl}-N^5-[2-methyl-1-(morpholin-4-yl)propan-2-yl]-1H-imidazole-4,5-dicarboxamide] | 5.40
13 | CNC(=O)c1nc[nH]c1C(=O)Nc1ccc(NC(=O)c2ccc(F)cc2Cl)c(C)c1 [Example 5, N^5-{4-[(2-chloro-4-fluorobenzoyl)amino]-3-methylphenyl}-N^4-methyl-1H-imidazole-4,5-dicarboxamide] | 6.49
14 | COCCNC(=O)c1[nH]cnc1C(=O)Nc1ccc(NC(=O)c2ccc(F)cc2Cl)cc1 [Example 130, N^4-{4-[(2-chloro-4-fluorobenzoyl)amino]phenyl}-N^5-(2-methoxyethyl)-1H-imidazole-4,5-dicarboxamide] | 7.52
15 | CNC(=O)c1nc[nH]c1C(=O)Nc1ccc(NC(=O)c2ncccc2Cl)cc1 [Example 247, N^5-(4-{[(3-chloropyridin-2-yl)carbonyl]amino}phenyl)-N^4-methyl-1H-imidazole-4,5-dicarboxamide] | 6.04
16 | CNC(=O)c1nc[nH]c1C(=O)Nc1ccc(NC(=O)c2ccc(C)cc2Cl)cc1 [Example 244, N^5-{4-[(2-chloro-4-methylbenzoyl)amino]phenyl}-N^4-methyl-1H-imidazole-4,5-dicarboxamide] | 7.40
17 | CNC(=O)c1nc[nH]c1C(=O)Nc1ccc(NC(=O)c2ccncc2Cl)cc1 [Example 6, N^5-{4-[(3-chloroisonicotinoyl)amino]phenyl}-N^4-methyl-1H-imidazole-4,5-dicarboxamide] | 6.82
18 | CNC(=O)c1nc[nH]c1C(=O)Nc1ccc(NC(=O)c2ccc(OC(F)(F)F)cc2F)cc1 [Example 253, N^5-(4-{[2-fluoro-4-(trifluoromethoxy)benzoyl]amino}phenyl)-N^4-methyl-1H-imidazole-4,5-dicarboxamide] | < 5.00
19 | O=C(Nc1ccc(NC(=O)c2nc[nH]c2C(=O)NCCCN2CCOCC2)cc1)c1ccccc1Cl [Example 200, N^4-{4-[(2-chlorobenzoyl)amino]phenyl}-N^5-[3-(morpholin-4-yl)propyl]-1H-imidazole-4,5-dicarboxamide] | 6.46
20 | CCOc1ccc(C(=O)Nc2ccc(NC(=O)c3[nH]cnc3C(=O)NC)cc2)c(Cl)c1 [Example 250, N^5-{4-[(2-chloro-4-ethoxybenzoyl)amino]phenyl}-N^4-methyl-1H-imidazole-4,5-dicarboxamide] | 6.64
21 | CC1CCN(CCNC(=O)c2[nH]cnc2C(=O)Nc2ccc(NC(=O)c3ccc(F)cc3)cc2)CC1 [Example 164, N^4-{4-[(4-fluorobenzoyl)amino]phenyl}-N^5-[2-(4-methylpiperidin-1-yl)ethyl]-1H-imidazole-4,5-dicarboxamide] | 7.40
22 | CC(C)(CNC(=O)c1[nH]cnc1C(=O)Nc1ccc(NC(=O)c2ccc(F)cc2)cc1)N1CCCCC1 [Example 209, N^4-{4-[(4-fluorobenzoyl)amino]phenyl}-N^5-[2-methyl-2-(piperidin-1-yl)propyl]-1H-imidazole-4,5-dicarboxamide] | 6.40
23 | CC(CNC(=O)c1[nH]cnc1C(=O)Nc1ccc(NC(=O)c2ccccc2Cl)cc1)N1CCCCC1 (stereo not drawn) [Example 182, N^4-{4-[(2-chlorobenzoyl)amino]phenyl}-N^5-[2-(piperidin-1-yl)propyl]-1H-imidazole-4,5-dicarboxamide] | 8.00
24 | CN(C)CCNC(=O)c1[nH]cnc1C(=O)Nc1ccc(NC(=O)c2ccc(F)cc2Br)cc1 [Example 217, N^4-{4-[(2-bromo-4-fluorobenzoyl)amino]phenyl}-N^5-[2-(dimethylamino)ethyl]-1H-imidazole-4,5-dicarboxamide] | 8.00
